Experimental data as given in patent US10028992B2, “Methods of treating muscular dystrophy” (BOARD OF REGENTS OF THE NEVADA SYSTEM OF HIGHER EDUCATION …, priority 2012, dated 2018).
Where “and” joins values, the source holds several entries; their conditions need not be identical. Equal entries are not always repeated.

Test system: α7 integrin promoter
Assay: muscle cell-based assay: α7βgal+/− myoblasts/myotubes, LacZ reporter, β-galactosidase cleavage of FDG
Set-up: species or system mouse; Results in α7+/− β-galactosidase assay: scale not given here
Conditions: Myoblasts
Procedure, shortened: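 Fluorescein generated from FDG by β-galactosidase reports α7 integrin promoter activity in differentiated myoblasts from α7+/− LacZ knock-in pups. Screening hits then went to dose-response, western blotting and a myostatin counterscreen.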

SMILES | Results in α7+/− β-galactosidase assay (0.5 uM) | Results in α7+/− β-galactosidase assay (1 uM) | Results in α7+/− β-galactosidase assay (5 uM) | Results in α7+/− β-galactosidase assay (10 uM) | Results in α7+/− β-galactosidase assay (20 uM) | Results in α7+/− β-galactosidase assay (40 uM)
COc1ccc(CNC(=O)C2CCCN(S(=O)(=O)c3c(C)noc3/C=C/N(C)C)C2)cc1 (stereo not shown) [drawing 579] | −0.00404 | 0.03462 | −0.04768 | −0.2043 | −0.2235 | −0.5821
CC(O)CNc1nc2c(c(=O)n(Cc3ccc(Br)cc3)c(=O)n2C)n1C (stereo not shown) [drawing 580] | 0.04963 | 0.02595 | −0.05885 | −0.1174 | −0.1471 | −0.218
COc1ccc(Cl)cc1NC(=O)c1cc(-c2cc(C)ccc2O)[nH]n1 [drawing 581] | 0.01879 | 0.1148 | −0.07708 | −0.1804 | −0.08756 | −0.06105
CCC(C)C(CC)NC(=O)CSc1nnc(COc2ccc(Cl)cc2)o1 (stereo not shown) [drawing 582] | 0.3279 | 0.05348 | 0.1357 | −0.1014 | −0.1787 | −0.4133
N#Cc1ccc(Sc2nc3ccccc3[nH]2)cc1C#N [drawing 584] | 0.3095 | 0.07925 | 0.2487 | 0.1199 | 0.003655 | −0.1111
COc1cc(/C=C/CN2CCN(Cc3ccc(C)o3)C(CCO)C2)ccc1O (stereo not shown) [drawing 585] | – | – | 0.1427 and 0.1728 | – | – | –
COc1ccccc1C(=O)OCc1ccc2sc(C)nc2c1 [drawing 586] | 0.191 | −0.07182 | 0.1329 | 0.00833 | 0.1184 | 0.01583
NC(=O)COc1ccc(C(=O)/C=C2\C(=O)Nc3ccccc32)cc1 [drawing 587] | 0.211 | −0.06344 | −0.1959 | −0.647 | −0.8153 | −0.9741
CC1(C)Cc2ccccc2-c2nc3n(c(=O)c21)CCS3 [drawing 588] | 0.2141 | 0.0159 | 0.02034 | 0.02377 | −0.2051 | −0.4207
CN(/C(=N/S(=O)(=O)c1cccs1)c1ccccc1)c1ccccc1 [drawing 589] | 0.2361 | −0.03677 | −0.05696 | −0.01934 | −0.0583 | −0.2263
CSc1ccc(S(=O)(=O)NCc2ccccc2)cc1 [drawing 590] | −0.1174 | −0.07696 | 0.06657 | 0.6252 | 0.01406 | −0.1992
O=C1Nc2ccccc2/C1=C/c1ccccc1F [drawing 591] | −0.0677 | −0.05193 | 0.009111 | 0.1004 | −0.4184 | −0.7444
CN1C(=O)/C(=C(/C#N)c2nc3ccccc3[nH]2)c2ccccc21 [drawing 592] | −0.1972 | −0.1961 | −0.2667 | 0.04652 | −0.456 | −0.5499
CC1CC(C)(C)N=C(S)N1CC(=O)N(C)Cc1ccccc1 (stereo not shown) [drawing 593] | −0.00967 | 0.04937 | 0.1163 | 0.244 | 0.03336 | 0.02068
Cc1noc(C)c1COc1ccc(C(=O)NCCc2ccccn2)cc1 [drawing 594] | −0.1523 | −0.1552 | −0.01736 | 0.1691 | −0.127 | −0.3226
